In the NIST ThermoML archive (doi:10.1016/j.jct.2018.02.018):

Key:
[1] = refractive index (Na D-line) (dimensionless); settings: 100 kPa, Liquid, Standard Abbe refractometry
[2] = 100 kPa, Liquid; for speed of sound: Frequency=3 MHz, Single path-length method; for mass density: Vibrating tube method
[3] = refractive index (Na D-line) (dimensionless); xn = mol fraction of the nth substance listed; settings: 100 kPa, Liquid, Standard Abbe refractometry, x1 = 1
[4] = xn = mol fraction of the nth substance listed; settings: 100 kPa, Liquid, x1 = 1; for speed of sound: Frequency=3 MHz, Single path-length method; for mass density: Vibrating tube method

CN(C)CCOCCO [2-(2-dimethylaminoethoxy)ethanol]
Settings	mass density, [2] [kg/m3]	refractive index, [1]	speed of sound, [2] [m/s]
293.15 K	954	1.442	1403.6
298.15 K	950	1.44	1386.7
303.15 K	946	1.438	1369.9
313.15 K	938	1.435	1336.8
323.15 K	930	1.431	1303.9

NCCO [2-aminoethan-1-ol]
Settings	mass density, [2] [kg/m3]	refractive index, [1]	speed of sound, [2] [m/s]
293.15 K	1016	1.455	1734.2
298.15 K	1012	1.453	1718.3
303.15 K	1008	1.451	1702.2
313.15 K	1000	1.447	1669.4
323.15 K	992	1.443	1637.3

CN(C)CCCO [3-dimethylamino-1-propanol]
Settings	mass density, [2] [kg/m3]	refractive index, [1]	speed of sound, [2] [m/s]
293.15 K	885	1.437	1395.8
298.15 K	881	1.435	1377.3
303.15 K	877	1.433	1358.8
313.15 K	869	1.429	1322.1
323.15 K	860	1.425	1285.7

NCc1ccccc1 [benzylamine]
Settings	mass density, [2] [kg/m3]	refractive index, [1]	speed of sound, [2] [m/s]
293.15 K	983	1.544	1579.7
298.15 K	978	1.542	1560.1
303.15 K	974	1.539	1540.2
313.15 K	965	1.534	1500
323.15 K	957	1.529	1461.1

C[S+](C)[O-] [dimethyl sulfoxide]
Settings	mass density, [2] [kg/m3]	refractive index, [1]	speed of sound, [2] [m/s]
293.15 K	1100	1.479	1503.9
298.15 K	1095	1.477	1486.8
303.15 K	1090	1.475	1469.9
313.15 K	1080	1.47	1436.3
323.15 K	1070	1.466	1403

C[S+](C)[O-] [dimethyl sulfoxide] + CN(C)CCCO
Settings	mass density, [4] [kg/m3]	refractive index, [3]	speed of sound, [4] [m/s]
293.15 K	1100	1.479	1503.9
303.15 K	1090	1.475	1469.9
313.15 K	1080	1.47	1436.3
323.15 K	1070	1.466	1403

C[S+](C)[O-] [dimethyl sulfoxide] + CN(C)CCOCCO
Settings	mass density, [4] [kg/m3]	refractive index, [3]	speed of sound, [4] [m/s]
293.15 K	1100	1.479	1503.9
303.15 K	1090	1.475	1469.9
313.15 K	1080	1.47	1436.3
323.15 K	1070	1.466	1403

C[S+](C)[O-] [dimethyl sulfoxide] + NCCO
Settings	mass density, [4] [kg/m3]	refractive index, [3]	speed of sound, [4] [m/s]
293.15 K	1100	1.479	1503.9
303.15 K	1090	1.475	1469.9
313.15 K	1080	1.47	1436.3
323.15 K	1070	1.466	1403

C[S+](C)[O-] [dimethyl sulfoxide] + NCc1ccccc1
Settings	mass density, [4] [kg/m3]	refractive index, [3]	speed of sound, [4] [m/s]
293.15 K	1100	1.479	1503.9
303.15 K	1090	1.475	1469.9
313.15 K	1080	1.47	1436.3
323.15 K	1070	1.466	1403
